The source of these data is US9428464B2, “Kynurenine-3-monooxygenase inhibitors, pharmaceutical compositions, and methods of use thereof” (CHDI Foundation, Inc., priority 2011, dated 2016).

In the test the test system is KMO. The experiment in a line: KMO activity assay: L-Kynurenine hydroxylation to 3-Hydroxy-Kynurenine, quantified by LC/MS. Format: biochemical. As to conditions: compound at 10 uM; footnote: some portion of activity of amides may be due to contribution of acid precursor. The protocol:
A generalized procedure for monitoring L-Kynurenine (KYN) hydroxylation to form product 3-Hydroxy-Kynurenine (3OH-KYN) by LC/MS is described below. Product is quantified by multiple reaction monitoring using MS.
A method of monitoring L-Kynurenine (KYN) hydroxylation to form product 3-Hydroxy-Kynurenine (3OH-KYN) by LC/MS is described below. Product is quantified by multiple reaction monitoring.
• Compound: Stock concentrations: 10 mM in 100% DMSO • Enzyme: KMO enzyme prepared at Evotec via mitochondria isolation from CHO-GST HIS KMO cells • Substrate: L-Kynurenine (Sigma: Cat #K3750) • [stock concentration: 10 mM in 100 mM potassium phosphate buffer, pH 7.4]
A method of monitoring L-Kynurenine (KYN) hydroxylation to form 3-Hydroxy-Kynurenine (3OH-KYN) by LC/MS is described. Product is quantified by multiple reaction monitoring (MRM method).

Regarding `O=C(NC1CCOCC1)c1cc(-c2ccc(Cl)c(Cl)c2)ncn1` [6-(3,4-Dichloro-phenyl)-pyrimidine-4-carboxylic acid (tetrahydro-pyran-4-yl)-amide], the “% Inhibition at 10 uM” value amounted to 55.35%.
To `O=C(NCC1CCOCC1)c1cc(-c2ccc(Cl)c(Cl)c2)ncn1` [6-(3,4-Dichloro-phenyl)-pyrimidine-4-carboxylic acid (tetrahydro-pyran-4-ylmethyl)-amide] belongs 101.39%; to `O=C(Nc1nnco1)c1cc(-c2ccc(Cl)c(Cl)c2)ncn1` [6-(3,4-Dichloro-phenyl)-pyrimidine-4-carboxylic acid [1,3,4]oxadiazol-2-ylamide], 101.93%; to `CC(NC(=O)c1cc(-c2ccc(Cl)c(Cl)c2)ncn1)c1ccc2c(c1)NC(=O)CO2` (stereo not drawn) [6-(3,4-Dichloro-phenyl)-pyrimidine-4-carboxylic acid [1-(3-oxo-3,4-dihydro-2H-benzo[1,4]oxazin-6-yl)-ethyl]-amide], 99.66%.
To `O=C1CN(C(=O)CNC(=O)c2cc(-c3ccc(Cl)c(Cl)c3)ncn2)CCN1` [6-(3,4-Dichloro-phenyl)-pyrimidine-4-carboxylic acid [2-oxo-2-(3-oxo-piperazin-1-yl)-ethyl]-amide] belongs 62.23%; to `CC1CN(c2cccc(NC(=O)c3cc(-c4ccc(Cl)c(Cl)c4)ncn3)c2)CC(C)O1` (stereo not drawn) [6-(3,4-Dichloro-phenyl)-pyrimidine-4-carboxylic acid [3-(2,6-dimethyl-morpholin-4-yl)-phenyl]-amide], 57.56%.
To `CN1CCN(c2cccc(NC(=O)c3cc(-c4ccc(Cl)c(Cl)c4)ncn3)c2)CC1.Cl` [6-(3,4-Dichloro-phenyl)-pyrimidine-4-carboxylic acid [3-(4-methyl-piperazin-1-yl)-phenyl]-amide hydrochloride salt] belongs 85.89%; to `CN1CCN(c2cccc(NC(=O)c3cc(-c4ccc(Cl)c(Cl)c4)ncn3)c2)CC1` [6-(3,4-Dichloro-phenyl)-pyrimidine-4-carboxylic acid [3-(4-methyl-piperazin-1-yl)-phenyl]-amide], 75.48%.
As for `CC1CN(c2ccc(NC(=O)c3cc(-c4ccc(Cl)c(Cl)c4)ncn3)cc2)CC(C)O1.Cl` (stereo not drawn) [6-(3,4-Dichloro-phenyl)-pyrimidine-4-carboxylic acid [4-(2,6-dimethyl-morpholin-4-yl)-phenyl]-amide hydrochloride salt], the “% Inhibition at 10 uM” value worked out at 97.61%.
Consider `Cl.O=C(Nc1ccc(OCCN2CCOCC2)cc1)c1cc(-c2ccc(Cl)c(Cl)c2)ncn1` [6-(3,4-Dichloro-phenyl)-pyrimidine-4-carboxylic acid [4-(2-morpholin-4-yl-ethoxy)-phenyl]-amide hydrochloride salt], for which the “% Inhibition at 10 uM” value is 90.48%.
In the case of `O=C(Nc1ccc(OCCN2CCOCC2)cc1)c1cc(-c2ccc(Cl)c(Cl)c2)ncn1` [6-(3,4-Dichloro-phenyl)-pyrimidine-4-carboxylic acid [4-(2-morpholin-4-yl-ethoxy)-phenyl]-amide], the “% Inhibition at 10 uM” value is listed as 100.44%.
To `CN1CCN(c2ccc(NC(=O)c3cc(-c4ccc(Cl)c(Cl)c4)ncn3)cc2)CC1.Cl` [6-(3,4-Dichloro-phenyl)-pyrimidine-4-carboxylic acid [4-(4-methyl-piperazin-1-yl)-phenyl]-amide hydrochloride salt] belongs 89.6%; to `CC(C)(O)c1nnc(NC(=O)c2cc(-c3ccc(Cl)c(Cl)c3)ncn2)o1` [6-(3,4-Dichloro-phenyl)-pyrimidine-4-carboxylic acid [5-(1-hydroxy-1-methyl-ethyl)-[1,3,4]oxadiazol-2-yl]-amide], 102.115%.
On to `Cl.O=C(Nc1ccc(OCCN2CCOCC2)nc1)c1cc(-c2ccc(Cl)c(Cl)c2)ncn1` [6-(3,4-Dichloro-phenyl)-pyrimidine-4-carboxylic acid [6-(2-morpholin-4-yl-ethoxy)-pyridin-3-yl]-amide hydrochloride salt], for which the “% Inhibition at 10 uM” value is 86.37%.
To `CNC(=O)c1cc(-c2ccc(Cl)c(Cl)c2)ncn1` [6-(3,4-Dichloro-phenyl)-pyrimidine-4-carboxylic acid methylamide] belongs 100.31%; to `O=C(Nc1ncco1)c1cc(-c2ccc(Cl)c(Cl)c2)ncn1` [6-(3,4-Dichloro-phenyl)-pyrimidine-4-carboxylic acid oxazol-2-yl-amide], 101.04%.
To `O=C(Nc1cnccn1)c1cc(-c2ccc(Cl)c(Cl)c2)ncn1` [6-(3,4-Dichloro-phenyl)-pyrimidine-4-carboxylic acid pyrazin-2-yl-amide] belongs 100.28%; to `O=C(Nc1cccnn1)c1cc(-c2ccc(Cl)c(Cl)c2)ncn1` [6-(3,4-Dichloro-phenyl)-pyrimidine-4-carboxylic acid pyridazin-3-yl-amide], 100.38%; to `Cc1nc(C(=O)O)cc(-c2ccc(F)c(F)c2)n1` [6-(3,4-Difluoro-phenyl)-2-methyl-pyrimidine-4-carboxylic acid], 100%.
To `C[C@H](NC(=O)c1cc(-c2ccc(F)c(F)c2)ncn1)c1ccccc1` [6-(3,4-Difluoro-phenyl)-pyrimidine-4-carboxylic acid ((S)-1-phenyl-ethyl)-amide] belongs 100.39%; to `CON(C)C(=O)c1cc(-c2ccc(Cl)c(Cl)c2)ncn1` [6-(3,4-dichloro-phenyl)-pyrimidine-4-carboxylic acid methoxy-methyl-amide], 103.74%.
As for `O=C(O)c1ncnc(-c2ccc(Cl)c(Cl)c2)c1CO` [6-(3,4-dichlorophenyl)-5-(hydroxymethyl)pyrimidine-4-carboxylate], the “% Inhibition at 10 uM” value is given as 95%.
`O=C(NO)c1cc(-c2ccc(Cl)c(Cl)c2)ncn1` [6-(3,4-dichlorophenyl)-N-hydroxypyrimidine-4-carboxamide]: the “% Inhibition at 10 uM” value is 73%.
For the compound `Cc1nnc(NC(=O)c2cc(-c3cccc(Br)c3)ncn2)o1` [6-(3-Bromo-phenyl)-pyrimidine-4-carboxylic acid (5-methyl-[1,3,4]oxadiazol-2-yl)-amide], the “% Inhibition at 10 uM” value came to 102.59%.
To `O=C(O)c1cc(-c2cccc(Br)c2)ncn1` [6-(3-Bromo-phenyl)-pyrimidine-4-carboxylic acid] belongs 102.1%; to `O=C(Nc1cccnc1)c1cc(-c2cccc(Cl)c2F)ncn1` [6-(3-Chloro-2-fluoro-phenyl)-pyrimidine-4-carboxylic acid pyridin-3-yl-amide], 100.83%; to `C[C@H](NC(=O)c1cc(-c2ccc(F)c(Cl)c2)ncn1)c1ccccc1` [6-(3-Chloro-4-fluoro-phenyl)-pyrimidine-4-carboxylic acid ((S)-1-phenyl-ethyl)-amide], 89.07%.
To `Cc1noc(C)c1NC(=O)c1cc(-c2cccc(Cl)c2)ncn1` [6-(3-Chloro-phenyl)-pyrimidine-4-carboxylic acid (3,5-dimethyl-isoxazol-4-yl)-amide] belongs 89.92%.
For `C[C@H](NC(=O)c1cc(-c2cccc(Cl)c2)ncn1)c1ccncc1` [6-(3-Chloro-phenyl)-pyrimidine-4-carboxylic acid ((S)-1-pyridin-4-yl-ethyl)-amide], the “% Inhibition at 10 uM” value turned out to be 96.86%.
For `C[C@H](NC(=O)c1cc(-c2cccc(F)c2)ncn1)c1ccccc1` [6-(3-Fluoro-phenyl)-pyrimidine-4-carboxylic acid ((S)-1-phenyl-ethyl)-amide], the “% Inhibition at 10 uM” value is on record as 90.15%.
As to `O=C(Nc1cncnc1)c1cc(-c2cccc(F)c2)ncn1` [6-(3-Fluoro-phenyl)-pyrimidine-4-carboxylic acid pyrimidin-5-yl-amide], the “% Inhibition at 10 uM” value worked out at 81.88%.
To `Cc1ccc(NC(=O)c2cc(-c3ccc(Cl)c(F)c3)ncn2)c(C)n1` [6-(4-Chloro-3-fluoro-phenyl)-pyrimidine-4-carboxylic acid (2,6-dimethyl-pyridin-3-yl)-amide] belongs 52.81%; to `C[C@H](NC(=O)c1cc(-c2ccc(Cl)c(F)c2)ncn1)c1ccccc1` [6-(4-Chloro-3-fluoro-phenyl)-pyrimidine-4-carboxylic acid ((S)-1-phenyl-ethyl)-amide], 46.62%; to `C[C@H](NC(=O)c1cc(-c2ccc(Cl)cc2)ncn1)c1ccccc1` [6-(4-Chloro-phenyl)-pyrimidine-4-carboxylic acid ((S)-1-phenyl-ethyl)-amide], 68.94%.
To `O=C(Nc1cccnc1)c1cc(-c2ccc(Cl)cc2)ncn1` [6-(4-Chloro-phenyl)-pyrimidine-4-carboxylic acid pyridin-3-yl-amide] belongs 67.93%.
To `O=C(Nc1cncnc1)c1cc(-c2ccc(Cl)cc2)ncn1` [6-(4-Chloro-phenyl)-pyrimidine-4-carboxylic acid pyrimidin-5-ylamide] belongs 56.49%; to `C[C@H](NC(=O)c1cc(-c2cc(Cl)ccc2F)ncn1)c1ccccc1` [6-(5-Chloro-2-fluoro-phenyl)-pyrimidine-4-carboxylic acid ((S)-1-phenyl-ethyl)-amide], 68.66%; to `O=C(Nc1cccnc1)c1cc(-c2cc(Cl)ccc2F)ncn1` [6-(5-Chloro-2-fluoro-phenyl)-pyrimidine-4-carboxylic acid pyridin-3-yl-amide], 84.21%.
As for `O=C(O)c1cc(-c2ccc3ccccc3c2)ncn1` [6-Naphthalen-2-yl-pyrimidine-4-carboxylic acid], the “% Inhibition at 10 uM” value was determined as 96%.
